# Data taken from patent US6664271B1, “Immunopotentiator agents” (Eli Lilly and Company, priority 1999, dated 2003).
# Assays:
# Format in all cases: cell-based
# [1] = system: chicken leukocytes; experiment: cells
# Method in brief: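 Leukocytes came from EDTA-anticoagulated cardiac blood of 3-6 week old broiler chickens. They were isolated by methylcellulose sedimentation and differential centrifugation, washed in PBS with 50 μg/ml gentamicin, and resuspended in supplemented RPMI 1640. Viable cells were counted by Trypan Blue exclusion.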
# [2] = system: mononuclear leukocytes; experiment: mammalian T-lymphocyte blastogenesis assay, canine (Example 75)
# Method: (§1) The compound prepared in Example 30, namely (S)-ethyl 1-(2-thiopheneacetyl)-3-peridinecarboxylate, was further evaluated for in vitro T-lymphocyte blastogenic activity from mammalian species other than avian.
# (§2) The mammalian blastogenesis assays were conducted with the same protocol as the vian assays with the following exceptions:
# (§3) 1. Only mononuclear leukocytes are used for the mammalian assay. The cells are obtained from whole blood by differential centrifugation using Histopague 1.077 (Sigma Chemical Company, St. Louis, Mo).
# (§4) 2. 0.5% Fetal Bovine Serum (FBS) [GIBCOBRL, Grand Island N.Y.] is added to RPMI 1640 medium. Exception: Non-human primate plasma is used instead of FBS at 5 ml/liter to RPMI 1640 medium.
# (§5) 3. 5×10^5 cells/well were used with the mammalian assays.
# [3] = system: mononuclear leukocytes; experiment: mammalian T-lymphocyte blastogenesis assay, non-human primate (Example 75)
# Method: as §1, §2, §3, §4, §5
smiles,measurement,setting,value
"CCOC(=O)[C@H]1CCCN(C(=O)Cc2cccs2)C1 [Example 30, (S)-Ethyl 1-(2-Thiopheneacetyl)-3-piperidinecarboxylate]",minimal effective concentration,"[1]; Gallus gallus, Leukocyte, chicken leukocytes, read at 72 hours, read-out: MSC (Minimum Stimulatory Concentration)",0.1 µg/mL
same,MTC (Maximum Tolerable Concentration prior to causing cytotoxicity),"[1]; Hubbard/Peterson broiler, chicken, 72 h",10 µg/mL
same,MSC,[2],1 μg μg/ml
same,MTC,[2],100 µg/mL
same,MSC,[3],10 μg μg/ml
same,MTC,[3],1 mg/mL
